In patent publication US11760754B2, “Heterocyclic mitochondrial activity inhibitors and uses thereof” (UNIVERSITÉ DE MONTRÉAL, priority 2017, dated 2023):
pEC50: −log10 of the molar value. Read-outs that look alike come from different tables or passages of the source.

Columns and labels:
[1] = test system: OCI-AML3 cells; assay: OCI-AML3 cell growth inhibition, dose-response viability assay (CellTiterGlo); assay type: cell-based; details: Homo sapiens, OCI-AML-3, 144 h, read-out: AML-3 EC50
Description: Cell dose-response viability assays. […] In the initial screen, compounds were added to seeded cells in serial dilutions (10 dilutions, 1:3, starting from […] 20 μM), in duplicates.
(§1) The potency of the compounds of Example 6 at inhibiting OCI-AML3 cell growth was tested using a procedure similar to that described for Mutritinib in Example 1. […] Murine MLL-AF9 leukemia cells (female cells) were generated by infection with VSV-G-pseudotyped MSCV MLL-AF9 IRES Puro (subcloned from a construct by Frédéric Barabé, Laval U, Quebec, QC, Canada).
(§2) Compounds were added to seeded cells in serial dilutions from 10 μM to 0.5 nM, in duplicates or quadruplicates.

[2] = test system: MLL-AF9 cells; assay: MLL-AF9 leukemia cell growth inhibition, dose-response viability assay (CellTiterGlo); assay type: cell-based, murine; details: Mus musculus, read-out: MLL-AF9 EC50
Description: as §1, §2

Row | pEC50 [1] | pEC50 ([2]; MLL-AF9, 120 h) | Structure (SMILES) | pEC50 ([1]; OCI-AML3 cells, 6 days of culture, CellTiterGlo) | pEC50 ([2]; 120 h, MLL-AF9 cells, 5 days of culture, CellTiterGlo)
1 | 5.00 to 6.00 | 6.00 to 6.30 | Fc1cc(C(F)(F)F)ccc1/C=C/c1nc(COc2ccc(CCCCn3cccn3)cc2)co1 [Compound 91, (E)-4-((4-(4-(1H-pyrazol-1-yl)butyl)phenoxy)methyl)-2-(2-fluoro-4-(trifluoromethyl)styryl) oxazole] |  | 
2 | 6.30 to 7.00 | 7.00 to 7.30 | Fc1ccc2oc(-c3nc(COc4ccc(CCCCn5ccnn5)cc4)co3)cc2c1 [Compound 112, 4-((4-(4-(1H-1,2,3-triazol-1-yl)butyl)phenoxy)methyl)-2-(5-fluorobenzofuran-2-yl) oxazole] |  | 
3 | 5.00 to 6.00 | 5.00 to 6.00 | Fc1cc(C(F)(F)F)ccc1/C=C/c1nc(COc2ccc(CCCCc3cncnc3)cc2)co1 [Compound 108, (E)-2-(2-fluoro-4-(trifluoromethyl)styryl)-4-((4-(4-(pyrimidin-5-yl)butyl)phenoxy)methyl)oxazole] |  | 
4 | 5.00 to 6.00 | 5.00 to 6.00 | C(=C\c1nc(COc2ccc(CCCCn3ccnn3)cc2)co1)/c1ccccn1 [Compound 84, (E)-4-((4-(4-(1H-1,2,3-triazol-1-yl)butyl)phenoxy)methyl)-2-(2-(pyridin-2-yl)vinyl)oxazole] |  | 
5 | 6.00 to 6.30 | 6.30 to 7.00 | Fc1ccc2sc(-c3nc(COc4ccc(CCCCn5ccnn5)cc4)co3)cc2c1 [Compound 113, 4-((4-(4-(1H-1,2,3-triazol-1-yl)butyl)phenoxy)methyl)-2-(5-fluorobenzo[b]thiophen-2-yl)oxazole] |  | 
6 | 5.00 to 6.00 | 6.30 to 7.00 | OCCCCc1cn(CCCCc2ccc(OCc3coc(/C=C/c4ccc(C(F)(F)F)cc4)n3)cc2)nn1 [Compound 5] |  | 
7 | 5.00 to 6.00 | 5.00 to 6.00 | NCCc1cn(CCCCc2ccc(OCc3coc(/C=C/c4ccc(C(F)(F)F)cc4)n3)cc2)nn1 [Compound 13, (E)-2-(1-(4-(4-((2-(4-(trifluoromethyl)styryl)oxazol-4-yl)methoxy)phenyl)butyl)-1H-1,2,3-triazol-4-yl)ethanamine] |  | 
8 | 6.30 to 7.00 | 6.30 to 7.00 | C(=C\c1nc(COc2ccc(CCCCn3ccnn3)cc2)co1)/c1cccnc1 [Compound 82, (E)-4-((4-(4-(1H-1,2,3-triazol-1-yl)butyl)phenoxy)methyl)-2-(2-(pyridin-3-yl)vinyl)oxazole] |  | 
9 | 6.00 to 6.30 | 7.00 to 7.30 | Fc1cc(Br)ccc1/C=C/c1nc(CNc2ccc(CCCCn3ccnn3)cc2)co1 [Compound 27, (E)-4-(4-(1H-1,2,3-triazol-1-yl)butyl)-N-((2-(4-bromo-2-fluorostyryl)oxazol-4-yl)methyl)aniline] |  | 
10 | 5.00 to 6.00 | 6.00 to 6.30 | Cc1ncn(CCCCc2ccc(OCc3coc(/C=C/c4ccc(C(F)(F)F)cc4F)n3)cc2)n1 [Compound 93, (E)-2-(2-fluoro-4-(trifluoromethyl)styryl)-4-((4-(4-(3-methyl-1H-1,2,4-triazol-1-yl)butyl)phenoxy)methyl)oxazole] |  | 
11 | 6.30 to 7.00 | 6.30 to 7.00 | COc1ccc(/C=C/c2nc(COc3ccc(CCCCn4ccnn4)cc3)co2)cc1 [Compound 32, (E)-4-((4-(4-(1H-1,2,3-triazol-1-yl)butyl)phenoxy)methyl)-2-(4-methoxystyryl)oxazole] |  | 
12 | 6.30 to 7.00 | 7.00 to 7.30 | OC(CCCn1ccnn1)c1ccc(OCc2coc(/C=C/c3ccc(C(F)(F)F)cc3F)n2)cc1 (stereo not drawn) [Compound 23, (E)-1-(4-((2-(2-fluoro-4-(trifluoromethyl)styryl)oxazol-4-yl)methoxy)phenyl)-4-(1H-1,2,3-triazol-1-yl)butan-1-ol] |  | 
13 | 5.00 to 6.00 | 6.30 to 7.00 | FC(F)(F)c1ccc(/C=C/c2nc(CNc3ccc(CCCCn4ccnn4)cc3)co2)cc1 [Compound 26, (E)-4-(4-(1H-1,2,3-triazol-1-yl)butyl)-N-((2-(4-(trifluoromethyl)styryl)oxazol-4-yl)methyl)aniline] |  | 
14 | 6.30 to 7.00 | 7.00 to 7.30 | OC(CCCn1ccnn1)c1ccc(OCc2coc(/C=C/c3ccc(C(F)(F)F)cc3)n2)cc1 (stereo not drawn) [Compound 17, (E)-4-(1H-1,2,3-triazol-1-yl)-1-(4-((2-(4-(trifluoromethyl)styryl)oxazol-4-yl)methoxy)phenyl)butan-1-ol] |  | 
15 | > 7.30 | 7.00 to 7.30 | Fc1cc(OC(F)(F)F)ccc1/C=C/c1nc(COc2ccc(CCCCn3ccnn3)cc2)co1 [Compound 124, (E)-4-((4-(4-(1H-1,2,3-triazol-1-yl)butyl)phenoxy)methyl)-2-(2-fluoro-4-(trifluoromethoxy)styryl)oxazole] |  | 
16 | 6.30 to 7.00 | 7.00 to 7.30 | OC(CCCn1ccnn1)c1ccc(OCc2coc(/C=C/c3ccc(Br)cc3F)n2)cc1 (stereo not drawn) [Compound 21, (E)-1-(4-((2-(4-bromo-2-fluorostyryl)oxazol-4-yl)methoxy)phenyl)-4-(1H-1,2,3-triazol-1-yl)butan-1-ol] |  | 
17 | 5.00 to 6.00 | 5.00 to 6.00 | Cc1nnn(CCCCc2ccc(OCc3coc(/C=C/c4ccc(C(F)(F)F)cc4F)n3)cc2)n1 [Compound 94, (E)-2-(2-fluoro-4-(trifluoromethyl)styryl)-4-((4-(4-(5-methyl-2H-tetrazol-2-yl)butyl)phenoxy)methyl)oxazole] |  | 
18 | 6.00 to 6.30 | 6.30 to 7.00 | O=C(CCCn1ccnn1)c1ccc(OCc2coc(/C=C/c3ccc(C(F)(F)F)cc3F)n2)cc1 [Compound 22, (E)-1-(4-((2-(2-fluoro-4-(trifluoromethyl)styryl)oxazol-4-yl)methoxy)phenyl)-4-(1H-1,2,3-triazol-1-yl)butan-1-one] |  | 
19 | 6.00 to 6.30 | 6.30 to 7.00 | Fc1cc(C(F)(F)F)ccc1/C=C/c1nc(COc2ccc(COCCn3ccnn3)cc2)co1 [Compound 115, (E)-4-((4-((2-(1H-1,2,3-triazol-1-yl)ethoxy)methyl)phenoxy)methyl)-2-(2-fluoro-4-(trifluoromethyl)styryl)oxazole] |  | 
20 |  |  | FC(F)(F)c1ccc(/C=C/c2nc(COc3ccc(CCCCn4ccnn4)cc3)co2)cc1 [Compound 1, (E)-4-((4-(4-(1H-1,2,3-triazol-1-yl)butyl)phenoxy)methyl-2-(4-trifluoromethyl)styryl)oxazole, reference compound] | 6.30 to 7.00 | 7.00 to 7.30
21 | 5.00 to 6.00 | 6.30 to 7.00 | OCCc1cn(CCCCc2ccc(OCc3coc(/C=C/c4ccc(C(F)(F)F)cc4F)n3)cc2)nn1 [Compound 95, (E)-2-(1-(4-(4-((2-(2-fluoro-4-(trifluoromethyl)styryl)oxazol-4-yl)methoxy)phenyl)butyl)-1H-1,2,3-triazol-4-yl)ethanol] |  | 
22 | 6.00 to 6.30 | 6.30 to 7.00 | CN(C)C(=O)OCCC(=O)NCCCCc1ccc(OCc2coc(/C=C/c3ccc(C(F)(F)F)cc3)n2)cc1 [Compound 87, (E)-3-oxo-3-((4-(4-((2-(4-(trifluoromethyl)styryl)oxazol-4-yl)methoxy)phenyl)butyl)amino)propyl dimethylcarbamate] |  | 
23 | 6.00 to 6.30 | 6.30 to 7.00 | CC(C)NC(=O)OCCc1cn(CCCCc2ccc(OCc3coc(/C=C/c4ccc(C(F)(F)F)cc4)n3)cc2)nn1 [Compound 70, (E)-2-(1-(4-(4-((2-(4-(trifluoromethyl)styryl)oxazol-4-yl)methoxy)phenyl)butyl)-1H-1,2,3-triazol-4-yl)ethyl isopropylcarbamate] |  | 
24 | < 5.00 | 5.00 to 6.00 | Fc1cc(C(F)(F)F)ccc1/C=C/c1nc(COc2ccc(CCCCc3ccccn3)cc2)co1 [Compound 140, (E)-2-(2-fluoro-4-(trifluoromethyl)styryl)-4-((4-(4-(pyridin-2-yl)butyl)phenoxy)methyl)oxazole] |  | 
25 | 5.00 to 6.00 | 5.00 to 6.00 | OCc1ccc(/C=C/c2nc(COc3ccc(CCCCn4ccnn4)cc3)co2)cc1 [Compound 60, (E)-(4-(2-(4-((4-(4-(1H-1,2,3-triazol-1-yl)butyl)phenoxy)methyl)oxazol-2-yl)vinyl)phenyl)methanol] |  | 
26 | > 7.30 | 7.00 to 7.30 | N#Cc1ccc(/C=C/c2nc(COc3ccc(SCCCn4ccnn4)cc3)co2)c(F)c1 [Compound 141, (E)-4-(2-(4-((4-((3-(1H-1,2,3-triazol-1-yl)propyl)thio)phenoxy)methyl)oxazol-2-yl)vinyl)-3-fluorobenzonitrile] |  | 
27 | 6.30 to 7.00 | 6.30 to 7.00 | Clc1ccccc1/C=C/c1nc(COc2ccc(CCCCn3ccnn3)cc2)co1 [Compound 118, (E)-4-((4-(4-(1H-1,2,3-triazol-1-yl)butyl)phenoxy)methyl)-2-(2-chlorostyryl)oxazole] |  | 
28 | 6.30 to 7.00 | > 7.30 | O=S1(=O)CCN(Cc2cn(CCCCc3ccc(OCc4coc(/C=C/c5ccc(C(F)(F)F)cc5F)n4)cc3)nn2)CC1 [Compound 71, (E)-4-((1-(4-(4-((2-(2-fluoro-4-(trifluoromethyl)styryl)oxazol-4-yl)methoxy)phenyl)butyl)-1H-1,2,3-triazol-4-yl)methyl)thiomorpholine 1,1-dioxide] |  | 
29 | 5.00 to 6.00 | 6.00 to 6.30 | OCCc1cn(CCCCc2ccc(OCc3coc(/C=C/c4ccc(C(F)(F)F)cc4)n3)cc2)nn1 [Compound 4, (E)-2-(1-(4-(4-((2-(4-Trifluoromethyl)styryl)oxazol-4-yl)methoxy)phenyl)butyl-1H-1,2,3-triazol-4-yl)ethanol] |  | 
30 | 6.30 to 7.00 | 6.30 to 7.00 | O=[N+]([O-])c1ccc(/C=C/c2nc(COc3ccc(CCCCc4cccnc4)cc3)co2)c(F)c1 [Compound 103, (E)-2-(2-fluoro-4-nitrostyryl)-4-((4-(4-(pyridin-3-yl)butyl)phenoxy)methyl)oxazole] |  | 
